This note sets out measurements from PubChem BioAssay AID256 (DTP/NCI, 2004).

Where “and” joins values, the source holds several entries; their conditions need not be identical. Equal entries are not always repeated. Inconclusive results and toxic doses are left out.

For this test, the system named is CD2F1 mice, L1210 leukemia ip, survival T/C. Nature of the test: NCI In Vivo Anticancer Drug Screen. Data for tumor model L1210 Leukemia (intraperitoneal) in CD2F1 (CDF1) mice. The note with it: higher = longer survival. The procedure, abridged:
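Compound-dosed mice with transplantable tumor versus matched vehicle controls; endpoint ratio T/C reported.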

Setting [1] is: endpoint: mean survival time, dose: 50.0 mg/kg/injection, schedule: Q01DX009 (ip), vehicle: saline.
The mark [2] stands for this setting: endpoint: mean survival time, dose: 100.0 mg/kg/injection, schedule: Q01DX009 (ip), vehicle: saline.
Setting [3] is: endpoint: mean survival time, dose: 200.0 mg/kg/injection, schedule: Q01DX009 (ip), vehicle: saline.
Where [4] appears, read: endpoint: mean survival time, dose: 25.0 mg/kg/injection, schedule: Q01DX009 (ip), vehicle: water.
Where [5] appears, read: endpoint: mean survival time, dose: 100.0 mg/kg/injection, schedule: Q01DX001 (ip), vehicle: saline with Tween-80.
The mark [6] stands for this setting: endpoint: mean survival time, dose: 100.0 mg/kg/injection, schedule: Q01DX009 (ip), vehicle: saline with Tween-80.
Setting [7] is: endpoint: mean survival time, dose: 100.0 mg/kg/injection, schedule: Q04DX003 (ip), vehicle: saline with Tween-80.
[8] abbreviates: endpoint: mean survival time, dose: 200.0 mg/kg/injection, schedule: Q01DX009 (ip), vehicle: saline with Tween-80.
Where [9] appears, read: endpoint: mean survival time, dose: 200.0 mg/kg/injection, schedule: Q04DX003 (ip), vehicle: saline with Tween-80.
Setting [10] is: endpoint: mean survival time, dose: 400.0 mg/kg/injection, schedule: Q01DX009 (ip), vehicle: saline with Tween-80.
[11] abbreviates: endpoint: mean survival time, dose: 400.0 mg/kg/injection, schedule: Q04DX003 (ip), vehicle: saline with Tween-80.
Where [12] appears, read: endpoint: mean survival time, dose: 12.5 mg/kg/injection, schedule: Q01DX009 (ip), vehicle: Klucel (hydroxypropylcellulose) (HPC).
Where [13] appears, read: endpoint: mean survival time, dose: 25.0 mg/kg/injection, schedule: Q01DX009 (ip), vehicle: Klucel (hydroxypropylcellulose) (HPC).
[14] abbreviates: endpoint: mean survival time, dose: 50.0 mg/kg/injection, schedule: Q01DX009 (ip), vehicle: Klucel (hydroxypropylcellulose) (HPC).
[15] abbreviates: endpoint: mean survival time, dose: 100.0 mg/kg/injection, schedule: Q01DX009 (ip), vehicle: Klucel (hydroxypropylcellulose) (HPC).
[16] abbreviates: endpoint: mean survival time, dose: 200.0 mg/kg/injection, schedule: Q01DX009 (ip), vehicle: Klucel (hydroxypropylcellulose) (HPC).
[17] abbreviates: endpoint: mean survival time, dose: 400.0 mg/kg/injection, schedule: Q01DX009 (ip), vehicle: Klucel (hydroxypropylcellulose) (HPC).

`CC12CCC(=O)C=C1CCC1C2CCC2(C)C1CCC2(O)C(=O)Cn1c(=O)[nH]cc(F)c1=O` (stereo not drawn): the T/C by setting is: (endpoint: mean survival time, dose: 12.5 mg/kg/injection, schedule: Q04DX003 (ip), vehicle: Klucel (hydroxypropylcellulose) (HPC)) 93 % of control; (endpoint: mean survival time, dose: 25.0 mg/kg/injection, schedule: Q04DX003 (ip), vehicle: Klucel (hydroxypropylcellulose) (HPC)) 96 % of control; (endpoint: mean survival time, dose: 50.0 mg/kg/injection, schedule: Q04DX003 (ip), vehicle: Klucel (hydroxypropylcellulose) (HPC)) 93 % of control; (endpoint: mean survival time, dose: 100.0 mg/kg/injection, schedule: Q04DX003 (ip), vehicle: Klucel (hydroxypropylcellulose) (HPC)) 100 % of control; (endpoint: mean survival time, dose: 200.0 mg/kg/injection, schedule: Q04DX003 (ip), vehicle: Klucel (hydroxypropylcellulose) (HPC)) 96 % of control.
With `CCCC(=O)N(CC)CC`, the T/C under setting [1] is 94 % of control, the T/C under setting [2] is 98 % of control and the T/C under setting [3] was 98 % of control.
Turning to `CC(=O)OCC1OC(n2ncc3c(NCc4ccco4)ncnc32)C(O)C1O` (stereo not drawn), the T/C under setting [4] is 109 % of control; the T/C (endpoint: mean survival time, dose: 50.0 mg/kg/injection, schedule: Q01DX009 (ip), vehicle: water) is 97 % of control; the T/C (endpoint: mean survival time, dose: 100.0 mg/kg/injection, schedule: Q01DX009 (ip), vehicle: water) is 111 % of control; the T/C (endpoint: mean survival time, dose: 200.0 mg/kg/injection, schedule: Q01DX009 (ip), vehicle: water) was 102 % of control; the T/C (endpoint: mean survival time, dose: 400.0 mg/kg/injection, schedule: Q01DX009 (ip), vehicle: water) is 86 % of control.
Take `O=P(N1CCOCC1)(N1CC1)N1CC1`: the T/C was 103 % of control (endpoint: mean survival time, dose: 1.56 mg/kg/injection, schedule: Q01DX009 (ip), vehicle: saline); 111 % of control (endpoint: mean survival time, dose: 3.12 mg/kg/injection, schedule: Q01DX009 (ip), vehicle: saline); 180 % of control (endpoint: mean survival time, dose: 12.5 mg/kg/injection, schedule: Q01DX009 (ip), vehicle: saline).
In the case of `CN(C)CCC(C#N)(c1ccccc1)c1ccccc1`, the T/C is, setting by setting: (endpoint: mean survival time, dose: 75.0 mg/kg/injection, schedule: Q01DX001 (ip), vehicle: saline) 102 % of control; (endpoint: mean survival time, dose: 150.0 mg/kg/injection, schedule: Q01DX001 (ip), vehicle: saline) 100 % of control.
Turning to `COc1ccc(C2=NNC(=O)CC2)cc1OC`, the T/C runs as follows: (endpoint: mean survival time, dose: 12.5 mg/kg/injection, schedule: Q04DX003 (ip), vehicle: saline) 107 % of control; (endpoint: mean survival time, dose: 25.0 mg/kg/injection, schedule: Q04DX003 (ip), vehicle: saline) 115 % of control; (endpoint: mean survival time, dose: 50.0 mg/kg/injection, schedule: Q04DX003 (ip), vehicle: saline) 98 % of control.
Regarding `OC(c1ccccc1)(c1ccccc1)c1cc2ccccc2[nH]1`, the T/C by setting is: under setting [5], 89 % of control; (endpoint: mean survival time, dose: 400.0 mg/kg/injection, schedule: Q01DX001 (ip), vehicle: saline with Tween-80) 89 % of control.
On to `CCC(=O)OC1(c2ccccc2)CCN(CCCc2ccccc2Cl)CC1`, for which the T/C was 108 % of control (endpoint: mean survival time, dose: 25.0 mg/kg/injection, schedule: Q01DX001 (ip), vehicle: saline with Tween-80); 95 % of control (endpoint: mean survival time, dose: 25.0 mg/kg/injection, schedule: Q04DX002 (ip), vehicle: saline with Tween-80); 100 % of control (endpoint: mean survival time, dose: 50.0 mg/kg/injection, schedule: Q01DX001 (ip), vehicle: saline with Tween-80); 98 % of control (endpoint: mean survival time, dose: 50.0 mg/kg/injection, schedule: Q04DX002 (ip), vehicle: saline with Tween-80); 96 % of control and 98 % of control under setting [5]; 95 % of control (endpoint: mean survival time, dose: 100.0 mg/kg/injection, schedule: Q04DX002 (ip), vehicle: saline with Tween-80).
For `CC1(C)OC1C(=O)O` (stereo not drawn), the T/C was 106 % of control (endpoint: mean survival time, dose: 100.0 mg/kg/injection, schedule: Q04DX003 (ip), vehicle: saline); 96 % of control (endpoint: mean survival time, dose: 200.0 mg/kg/injection, schedule: Q04DX003 (ip), vehicle: saline); 98 % of control (endpoint: mean survival time, dose: 400.0 mg/kg/injection, schedule: Q04DX003 (ip), vehicle: saline).
With `Oc1ccc(/C=N\N=C\c2ccc(O)cc2)cc1`, the T/C runs as follows: under setting [6], 86 % of control; under setting [7], 96 % of control; under setting [8], 86 % of control; under setting [9], 89 % of control; under setting [10], 91 % of control; under setting [11], 96 % of control.
Take `CCC1CCC(NC(C)=O)CC1` (stereo not drawn): the T/C under setting [5] is 96 % of control.
For the compound `CCCCCCCC(=O)Nc1ccc(C)c(C)c1`, the T/C is, setting by setting: under setting [6], 89 % of control; under setting [8], 91 % of control; under setting [10], 96 % of control.
Take `c1ccc2c(c1)[nH]c1nc3ccncc3nc12`: the T/C runs as follows: under setting [1], 96 % of control; under setting [2], 104 % of control; under setting [3], 95 % of control.
With `O=C1CCCCC1C1(O)C(=O)Nc2ccccc21` (stereo not drawn), the T/C (endpoint: mean survival time, dose: 50.0 mg/kg/injection, schedule: Q01DX009 (ip), vehicle: saline with Tween-80) was 91 % of control; the T/C under setting [6] is 95 % of control; the T/C under setting [8] is 87 % of control.
For `COc1ccc(Cl)[n+]([O-])n1`, the T/C by setting is: (endpoint: mean survival time, dose: 3.12 mg/kg/injection, schedule: Q01DX009 (ip), vehicle: Klucel (hydroxypropylcellulose) (HPC)) 94 % of control and 103 % of control; (endpoint: mean survival time, dose: 6.25 mg/kg/injection, schedule: Q01DX009 (ip), vehicle: Klucel (hydroxypropylcellulose) (HPC)) 97 % of control and 101 % of control; under setting [12], 96 % of control and 106 % of control; under setting [13], 98 % of control and 106 % of control; under setting [14], 94 % of control and 101 % of control; under setting [15], 101 % of control and 104 % of control.
As for `Cc1cn(C2OC3COC2C3O)c(=O)[nH]c1=O` (stereo not drawn), the T/C (endpoint: median survival time, dose: 12.5 mg/kg/injection, schedule: Q01DX005 (ip), vehicle: saline with Tween-80) is 97 % of control; the T/C (endpoint: median survival time, dose: 25.0 mg/kg/injection, schedule: Q01DX005 (ip), vehicle: saline with Tween-80) is 97 % of control; the T/C (endpoint: median survival time, dose: 50.0 mg/kg/injection, schedule: Q01DX005 (ip), vehicle: saline with Tween-80) was 94 % of control; the T/C (endpoint: median survival time, dose: 100.0 mg/kg/injection, schedule: Q01DX005 (ip), vehicle: saline with Tween-80) is 102 % of control; the T/C (endpoint: median survival time, dose: 200.0 mg/kg/injection, schedule: Q01DX005 (ip), vehicle: saline with Tween-80) was 105 % of control.
With `COc1ccc2c(c1)C1(C)CCCC(C#N)=C1CC2` (stereo not drawn), the T/C is, setting by setting: (endpoint: mean survival time, dose: 100.0 mg/kg/injection, schedule: Q01DX001 (ip), vehicle: saline) 96 % of control; (endpoint: mean survival time, dose: 200.0 mg/kg/injection, schedule: Q01DX001 (ip), vehicle: saline) 96 % of control; (endpoint: mean survival time, dose: 400.0 mg/kg/injection, schedule: Q01DX001 (ip), vehicle: saline) 92 % of control.
Turning to `CCOC(=O)C1CC(c2ccccc2)=NN1c1ccccc1` (stereo not drawn), the T/C under setting [12] was 95 % of control; the T/C under setting [13] was 101 % of control; the T/C under setting [14] is 102 % of control; the T/C under setting [15] is 101 % of control; the T/C under setting [16] is 95 % of control; the T/C under setting [17] is 98 % of control.
Turning to `c1ccc2c(c1)nnc1ccccc12`, the T/C was 100 % of control under setting [6], 110 % of control under setting [8] and 110 % of control under setting [10].
Regarding `O=C(N/N=C/c1ccccc1Cl)c1ccccc1`, the T/C was 103 % of control under setting [15], 98 % of control under setting [16] and 107 % of control under setting [17].
For `CC1(C)CC(=O)C2=C(C1)OC1=C(C(=O)CC(C)(C)C1)C2c1ccccc1Cl`, the T/C was 102 % of control under setting [7], 100 % of control under setting [9] and 104 % of control under setting [11].
`O=C(O)C(Br)CC(Br)C(=O)O` (stereo not drawn): the T/C under setting [1] is 93 % of control and the T/C under setting [2] is 93 % of control.
On to `CC1=NN(c2ccccc2)C(=O)C1`, for which the T/C under setting [6] was 98 % of control; the T/C under setting [7] was 94 % of control; the T/C under setting [8] was 102 % of control; the T/C under setting [9] is 92 % of control; the T/C under setting [10] was 96 % of control; the T/C under setting [11] is 86 % of control.
`COc1cccc2c1C(=O)c1c(O)c3c(c(O)c1C2=O)C[C@@](O)(/C(C)=N\O)C[C@@H]3OC1CC(N)C(O)C(C)O1` (stereo partly drawn): the T/C (endpoint: mean survival time, dose: 3.13 mg/kg/injection, schedule: Q01DX009 (ip), vehicle: water) was 108 % of control; the T/C (endpoint: mean survival time, dose: 6.25 mg/kg/injection, schedule: Q01DX009 (ip), vehicle: water) is 112 % of control; the T/C under setting [4] was 98 % of control.
